Experimental data published in article PMC11387175, “Model informed dose regimen optimizing in development of leritrelvir for the treatment of mild or moderate COVID-19” (Frontiers in Pharmacology, 2024).

Experiments:
CYP3A = experiment: Metabolizing enzyme identification (in-house data); type: in vitro ADME
[1] = tested on: CYP1A2, CYP2B6, CYP2C8, CYP2C9, CYP2C19, and CYP2D6; experiment: Metabolizing enzyme identification (in-house data); type: in vitro ADME
wild strain of COVID-19 = experiment: Target concentration needed to achieve EC90; type: cell-based, SARS-CoV-2
[2] = Population pharmacokinetic analysis of phase I plasma concentrations (SAD, MAD, food effect); type: in vivo, human
Description: (§1) The data obtained from a phase I clinical trial assessing the safety, tolerability, pharmacokinetics, and impact of food on leritrelvir Pharmacokinetics in healthy adult subjects (NCT05829551) were utilized in the PopPK analysis. The trial was designed as a randomized, double-blind, placebo-controlled study involving escalating single and multiple doses. The study design is outlined in Figure 1. In the single-ascending dose (SAD) arm, participants received leritrelvir tablets alone or with 100 mg of RTV. In the multiple-ascending dose (MAD) arm, leritrelvir tablets were given alone or with 100 mg RTV twice-daily on Days 1–4, followed by a single dose on Day 5, or thrice-daily on Days 1–4, followed by a single dose on Day 5. In the food consumption study arm, leritrelvir tablets alone or with 100 mg RTV were administered once during each dosing period after an overnight fast of at least 10 h or following a standard meal (high-fat, high-calorie) on Day 1. Each dosing period included a single administration, totaling two administrations, with a minimum interval of 8 days between periods.
FIGURE 1 Overall study design diagram. The study comprised three distinct components: a single-ascending dose study (SAD), a food effect study, and a multiple-ascending dose study (MAD). The SAD portion of the study was divided into two parts: Part 1 involved a dose escalation study of single-agent administration of RAY1216 tablets (S-1, S-2, and S-3), while Part 2 focused on the combination of RAY1216 tablets with 100 mg RTV (S-1R, S-2R, and S-3R). It should be noted that the S-2R and S-3R groups were initially planned but were ultimately not conducted due to dose-undetermined factors. The food effect study (FE) entails the administration of single doses of RAY1216 tablets at 800 mg (FE-1) and in combination with RTV at 500 mg (FE-2) to groups of 12 subjects. Group A undergoes a fasting administration cycle followed by a postprandial administration cycle, while Group B experiences the reverse order of administration cycles. The two cycles consist of crossover administration with a washout period lasting a minimum of 8 days. The MAD involves the co-administration of RAY1216 tablets (300 mg, 500 mg, and 700 mg) with 100 mg RTV in a BID dosing regimen, with escalating doses administered over 5 consecutive days and solely in the morning on the 5th day. Furthermore, a 400 mg RAY1216 single-agent TID dosing regimen administered over 5 consecutive days with administration limited to the morning on the 5th day.
Leritrelvir PK data was analyzed utilizing nonlinear mixed-effects modeling (NONMEM) ([Lindstrom and Bates, 1990]) and implemented with NONMEM version 7.5 (ICON Development Solutions. Ellicott City, Maryland, USA). The estimation algorithm used was the first-order conditional estimation method with interaction (FOCEI) of interindividual variability and residual variability. Perl Speaks NONMEM (PsN) version 4.2 (Uppsala University, Sweden) ([Lindbom et al., 2004]; [Lindbom et al., 2005]) and R version 4.1.2 were used as tools for executing NONMEM and summarizing outcomes. The model evaluated the impact of age, weight, body mass index, gender, albumin, alanine aminotransferase, aspartate aminotransferase, alkaline phosphatase, serum creatinine, creatinine clearance rate, total bilirubin, gamma-glutamyl transpeptidase, food consumption, and concomitant medication on the pharmacokinetics of leritrelvir. The final PopPK model was determined through a stepwise forward addition (p < 0.01) and backward deletion (p < 0.001) approach. The specifics of the model development process are outlined in the Supplementary Material. Evaluation of the final PopPK model was conducted using goodness-of-fit plots, prediction-corrected visual predictive check (pcVPC) ([Bergstrand et al., 2011]), bootstrapping ([Ette, 1997]), and shrinkage assessments ([Savic and Karlsson, 2009]). […]

[3] = Phase I safety and tolerability in healthy subjects; type: in vivo, human; conditions: monotherapy or in combination with ritonavir
Description: as §1

[4] = tested on: SARS-CoV-2 βCoV/KOR/KCDC03/2020 strain; set-up: method as in Chen et al., 2023; conditions: Vero cells, ref Chen et al., 2023, cited from earlier work
wild-type strain = tested on: wild-type strain; set-up: method as in Chen et al., 2024; conditions: ref Chen et al., 2024, read-out: concentration for 90% of maximal effect (EC90); cited from earlier work
Alpha variant = tested on: Alpha variant; set-up: method as in Chen et al., 2024; conditions: ref Chen et al., 2024, read-out: concentration for 90% of maximal effect (EC90); cited from earlier work
Beta variant = tested on: Beta variant; set-up: method as in Chen et al., 2024; conditions: ref Chen et al., 2024, read-out: concentration for 90% of maximal effect (EC90); cited from earlier work
Delta variant = tested on: Delta variant; set-up: method as in Chen et al., 2024; conditions: ref Chen et al., 2024, read-out: concentration for 90% of maximal effect (EC90); cited from earlier work
Omicron BA.1 = tested on: Omicron BA.1; set-up: method as in Chen et al., 2024; conditions: ref Chen et al., 2024, read-out: concentration for 90% of maximal effect (EC90); cited from earlier work
Omicron BA.5 = tested on: Omicron BA.5; set-up: method as in Chen et al., 2024; conditions: ref Chen et al., 2024, read-out: concentration for 90% of maximal effect (EC90); cited from earlier work
SARS-CoV-2 [5] = conditions: COVID-19 patients; 400 mg TID alone or 300 mg with 100 mg RTV BID; ref Wang et al., 2023; cited from earlier work
SARS-CoV-2 [6] = tested on: SARS-CoV-2; set-up: method as in Zhan et al., 2024; conditions: ref Zhan et al., 2024, cited from earlier work

O=C(NC1CCCC1)C(=O)[C@H](C[C@@H]1CCNC1=O)NC(=O)[C@@H]1[C@H]2CCC[C@H]2CN1C(=O)[C@@H](NC(=O)C(F)(F)F)C1CCCCC1 [leritrelvir]
role of CYP3A in metabolism (CYP3A): primary metabolizing enzyme
involvement of other CYP isoforms in metabolism [1]: minimal to no involvement
concentration needed to achieve EC90 (wild strain of COVID-19): 0.165 µg/mL
ratio of estimated clearance of leritrelvir to leritrelvir combined with RTV ([2]; 44.4/12.2): 3.64
Absorption lag time, ALAG1: Bootstrapping Median (95% CI) ([2]; Comb (with RTV)): 0.166 (0.131–0.185) hr
Absorption lag time, ALAG1: Population model estimates (%RSE) [95% CI] ([2]; Comb (with RTV)): 0.166 h
Absorption rate, Ka: Bootstrapping Median (95% CI) ([2]; Comb (with RTV)): 0.170 (0.154–0.185) hr^-1
Absorption rate, Ka: Population model estimates (%RSE) [95% CI] ([2]; Comb (with RTV)): 0.169 h⁻¹
Clearance, CL: Bootstrapping Median (95% CI) ([2]; Comb (with RTV)): 12.2 (10.7–14.0) L/h
Clearance, CL: Population model estimates (%RSE) [95% CI] ([2]; Comb (with RTV)): 12.2 L/h
Duration of zero order absorption, D1: Bootstrapping Median (95% CI) ([2]; Comb (with RTV)): 0.0719 (0.0412–0.129) hr
Duration of zero order absorption, D1: Population model estimates (%RSE) [95% CI] ([2]; Comb (with RTV)): 0.0684 h
Intercompartment clearance between the central compartment and peripheral compartment, Q: Population model estimates (%RSE) [95% CI] ([2]; Comb (with RTV)): 0.611 L/h
Volume distribution of peripheral compartment, Vc: Bootstrapping Median (95% CI) ([2]; Comb (with RTV)): 9.90 (7.68–13.2) L
Volume distribution of peripheral compartment, Vc: Population model estimates (%RSE) [95% CI] ([2]; Comb (with RTV)): 9.78 L
Volume distribution of peripheral compartment, Vp: Bootstrapping Median (95% CI) ([2]; Comb (with RTV)): 9.24 (6.93–12.8) L
Volume distribution of peripheral compartment, Vp: Population model estimates (%RSE) [95% CI] ([2]; Comb (with RTV)): 9.30 L
Absorption lag time, ALAG1: Bootstrapping Median (95% CI) ([2]; Mono (leritrelvir alone)): 0.188 (0.164–0.2) hr
Absorption lag time, ALAG1: Population model estimates (%RSE) [95% CI] ([2]; Mono (leritrelvir alone)): 0.189 h
Absorption rate, Ka: Bootstrapping Median (95% CI) ([2]; Mono (leritrelvir alone)): 0.292 (0.258–0.329) hr^-1
Absorption rate, Ka: Population model estimates (%RSE) [95% CI] ([2]; Mono (leritrelvir alone)): 0.293 h⁻¹
Clearance, CL: Bootstrapping Median (95% CI) ([2]; Mono (leritrelvir alone)): 44.2 (39.0–50.7) L/h
Clearance, CL: Population model estimates (%RSE) [95% CI] ([2]; Mono (leritrelvir alone)): 44.4 L/h
Duration of zero order absorption, D1: Bootstrapping Median (95% CI) ([2]; Mono (leritrelvir alone)): 0.078 (0.0359–0.171) hr
Duration of zero order absorption, D1: Population model estimates (%RSE) [95% CI] ([2]; Mono (leritrelvir alone)): 0.0722 h
Intercompartment clearance between the central compartment and peripheral compartment, Q: Population model estimates (%RSE) [95% CI] ([2]; Mono (leritrelvir alone)): 5.57 L/h
Volume distribution of peripheral compartment, Vc: Bootstrapping Median (95% CI) ([2]; Mono (leritrelvir alone)): 18.7 (14.3–25.3) L
Volume distribution of peripheral compartment, Vc: Population model estimates (%RSE) [95% CI] ([2]; Mono (leritrelvir alone)): 18.9 L
Volume distribution of peripheral compartment, Vp: Bootstrapping Median (95% CI) ([2]; Mono (leritrelvir alone)): 58.2 (44.7–79.5) L
Volume distribution of peripheral compartment, Vp: Population model estimates (%RSE) [95% CI] ([2]; Mono (leritrelvir alone)): 58.2 L
Occasion variability of CL after multiple dose for 12 h, OC1.CL: Bootstrapping Median (95% CI) ([2]; cell for OC2.CL (96 h) is empty below): 18.7 (10–29.3) %
Occasion variability of Vc after multiple dose for 12 h, OC1.Vc: Bootstrapping Median (95% CI) ([2]; cell for OC2.Vc (96 h) is empty below): 53.1 (34–82.5) %
Proportional error of fed subjects within 2 h after dose: Bootstrapping Median (95% CI) ([2]; fed subjects, 0-2 h post-dosing): 70.5 (56.4–80.7) %
Impact of food consumption on D1, D1.FED: Bootstrapping Median (95% CI) ([2]; fed vs fasted): 1.33 (1.22–1.49)
Impact of food consumption on F1, F1.FED: Bootstrapping Median (95% CI) ([2]; fed vs fasted): 1.50 (1.25–1.82)
Impact of food consumption on Ka, Ka.FED: Bootstrapping Median (95% CI) ([2]; fed vs fasted): 21.3 (10.8–41)
Inter-individual variability CL: Bootstrapping Median (95% CI) ([2]; in vivo): 29.9 (25.5–34.6) %
Inter-individual variability D1: Bootstrapping Median (95% CI) ([2]; in vivo): 152 (114–189) %
Inter-individual variability Ka: Bootstrapping Median (95% CI) ([2]; in vivo): 25.3 (20.7–29.4) %
Inter-individual variability Vc: Bootstrapping Median (95% CI) ([2]; in vivo): 79.8 (64.7–93.4) %
Inter-individual variability Vp: Bootstrapping Median (95% CI) ([2]; in vivo): 43.6 (31–52.5) %
Residual variability, Proportional residual: Bootstrapping Median (95% CI) ([2]; in vivo): 24.2 (22.4–26.1) %
enhancement of exposure of leritrelvir by co-administration with RTV ([2]; with RTV vs alone): approximately 4 fold
Grade 3 or higher adverse events (AEs) [3]: No Grade 3 or higher adverse events (AEs) were reported
changes in corrected QT (QTc) interval, pulse rate (PR) interval, heart rate, and blood pressure [3]: no meaningful changes were observed
dose-dependent adverse reactions [3]: No dose-dependent adverse reactions were observed
serious adverse events (SAEs) [3]: no serious adverse events (SAEs) occurred
IC90 ([4]; read-out: 90% inhibitory concentration (IC90)): 92 nM
IC50 ([4]; read-out: half maximal inhibitory concentration (IC50)): 36 nM
EC90 (wild-type strain): 228 nM
EC90 (Alpha variant): 351 nM
EC90 (Beta variant): 688 nM
EC90 (Delta variant): 254 nM
EC90 (Omicron BA.1): 208 nM
EC90 (Omicron BA.5): 363 nM
duration of viral shedding (SARS-CoV-2 [5]): 166 h
duration of viral shedding shorter than the placebo group (SARS-CoV-2 [5]): 4.2 days
decrease in the SARS-CoV-2 viral load compared to the placebo (SARS-CoV-2 [6]; 400 mg TID, after a 3-day treatment period): approximately tenfold
reduction in the time to sustained clinical recovery of all 11 COVID-19 symptoms compared to the placebo (SARS-CoV-2 [6]; oral 400 mg TID for 5 days): 20.3 h
